Key:
[1] = test system: Abeta in extract of post-mortem human AD brain tissue; test: BAS: human brain amyloid solubilization assay; type: biochemical; conditions: max effect across the concentration range, referenced to baseline PBS
Procedure, shortened: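 Plaque-bearing post-mortem AD cortex homogenised in ice-cold PBS pH 7.4; soluble Aβ in 100,000×g supernatant, insoluble Aβ from resuspended pellet. Fractions run on Tris-Tricine SDS-PAGE, immunoblotted with W02, densitometry against synthetic Aβ40 standards.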

[2] = molecular target: T1, Abeta:Zn (25:50 μM) Synthetic Aggregations (Homo sapiens, UniProt P05067); test: Disaggregation of Abeta:Zn synthetic aggregates (ThT fluorescence); type: biochemical
T1 construct: PB Compound Mediated Dissolution of Aggregated Abeta 1-42; purchased Keck Laboratory, Yale University School of Medicine
T1 sequence (P05067 672-713 limits assumed): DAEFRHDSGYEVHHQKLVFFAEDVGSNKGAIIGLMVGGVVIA
Procedure, shortened: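 Abeta1-42 (25 μM) with ZnCl2 (50 μM) and ThT (50 μM) in PBS pH 6.6 was preaggregated 24 h at 37 degrees with rotation. Aggregates were then exposed to compound (final 1-50 μM, DMSO) for 2 h at 37 degrees. ThT fluorescence was read at ex 450/em 480 nm.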

SMILES: CN(C)Cc1ccc2c(Cl)cc(Cl)c(O)c2n1.Cl [PB 1033]
- BAS max effect [1]: 470%
- Disaggregation % Aggregate reduction at 5 μM ([2]; 5 μM test compound): 33.2%
- EC50 ([2]; Abeta:Zn 25:50 μM aggregates): 18.6 µM
